Patent publication US9623108B2, “Formulation for oral administration with beneficial effects on the cardiovascular system” (ROTTAPHARM S.p.A., priority 2006, dated 2017)

Columns and labels:
[1] = molecular target: T1, HMG-CoA-r (Homo sapiens, UniProt P04035); details: competition with HMG-CoA at HMG-CoA-r; cited from earlier work
T1 sequence (P04035 1-888): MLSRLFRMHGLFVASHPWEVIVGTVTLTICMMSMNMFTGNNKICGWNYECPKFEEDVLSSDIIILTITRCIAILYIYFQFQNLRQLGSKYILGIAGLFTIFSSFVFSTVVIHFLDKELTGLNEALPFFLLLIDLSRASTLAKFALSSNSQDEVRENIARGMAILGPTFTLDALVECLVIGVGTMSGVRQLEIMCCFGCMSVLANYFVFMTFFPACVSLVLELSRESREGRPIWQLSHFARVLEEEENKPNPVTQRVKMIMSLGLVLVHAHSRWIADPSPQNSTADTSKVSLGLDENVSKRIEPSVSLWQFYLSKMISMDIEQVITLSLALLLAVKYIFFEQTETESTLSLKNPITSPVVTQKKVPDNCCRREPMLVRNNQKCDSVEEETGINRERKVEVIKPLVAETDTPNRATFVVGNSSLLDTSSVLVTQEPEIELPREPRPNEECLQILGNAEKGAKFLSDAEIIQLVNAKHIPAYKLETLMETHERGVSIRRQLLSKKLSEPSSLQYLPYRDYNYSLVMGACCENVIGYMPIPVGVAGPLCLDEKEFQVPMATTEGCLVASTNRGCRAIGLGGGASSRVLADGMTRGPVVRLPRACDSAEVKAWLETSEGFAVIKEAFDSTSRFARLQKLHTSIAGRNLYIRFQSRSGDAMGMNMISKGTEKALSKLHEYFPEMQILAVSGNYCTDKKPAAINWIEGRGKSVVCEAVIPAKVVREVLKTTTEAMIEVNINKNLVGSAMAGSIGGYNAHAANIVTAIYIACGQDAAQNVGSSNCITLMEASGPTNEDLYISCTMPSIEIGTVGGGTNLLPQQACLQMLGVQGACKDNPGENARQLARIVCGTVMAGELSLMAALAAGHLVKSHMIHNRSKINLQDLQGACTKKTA

[2] = test system: rabbits rendered hypercholesterolaemic and hypertriglyceridaemic; test: Rabbits rendered hypercholesterolaemic and hypertriglyceridaemic with atherogenic feed, 3 months treatment, blood lipid analyses; format: in vivo, New Zealand White rabbits
Protocol: The action of the active principles, according to the composition of COMB, was tested and evaluated experimentally on rabbits rendered hypercholesterolaemic and hypertriglyceridaemic with a diet with added cholesterol, powdered egg yolk and lard. Note: all the daily doses used in the treatment groups, described in the experimental section, are about 4 times higher than those stated in the examples of formulation described in a later section. An exception is the group treated with berberine 100 mg/kg, for which the dose of active principle corresponds to about 13 times that contained in the examples of formulations intended for oral administration in humans. […] The difference in posology between animals and humans is perfectly normal in pharmacology, because it is well known that the pathologies induced experimentally in animals are always dramatically and unnaturally more severe than those that occur spontaneously in humans. New Zealand White rabbits of 6-8 weeks and with body weight of 1.8-2.0 kg. The following feeds, in pellets, were provided at a ration of 150 g of feed per day. Water was available ad libitum. ATER: Atherogenic feed, i.e. standard feed for guinea pigs and rabbits according to Sherman, in pellets (Laboratorio Dottori […].) with addition of 10% powdered egg yolk, 10% lard and 1% cholesterol according to Kong et al. [2004]. The substances under investigation were administered by stomach tube, once a day, suspended in 2 ml/kg of carboxymethylcellulose 0.2% (CMC). All the animals were acclimatized in the living quarters at 25±2° C. and relative humidity 55-65%. After 1 week, blood samples were taken in order to obtain the baseline data. The animals were then randomized to the following treatment groups of 10 rabbits each. AT: Controls with feed ATER and with daily administration of 2 ml/kg of CMC by stomach tube. Ber30: Feed AT, with daily administration of berberine 30 mg/kg in 2 ml/kg of CMC, by stomach tube. Ber100: Feed AT, with daily administration of berberine 100 mg/kg in 2 ml/kg of CMC, by stomach tube. Ass (reference association (combination) for lowering blood lipid level): Feed AT, with daily administration of Ass in 2 ml/kg of CMC, by stomach tube. COMB: Feed AT, with daily administration of Ass with addition of 30 mg/kg of berberine in 2 ml/kg of CMC, by stomach tube. The treatments were continued for 3 months. […] These analyses were carried out with suitably validated, conventional laboratory methods. A descriptive statistical analysis was performed using conventional methods of calculation.

[3] = test system: hypercholesterolaemic patients; details: berberine 500 mg b.i.d.; cited from earlier work
[4] = test system: patients who had hypercholesterolaemia and hypertriglyceridaemia; details: 500 mg berberine in a single dose once a day; cited from earlier work
[5] = NOAEL, doses repeated daily in an animal; format: in vivo; details: equivalent of the animal NOAEL in humans
[6] = berberine 30 mg/kg/d by stomach tube, not statistically significant
[7] = berberine 100 mg/kg/d by stomach tube, p<0.001

## CC[C@H](C)C(=O)O[C@H]1C[C@@H](C)C=C2C=C[C@H](C)[C@H](CC[C@@H]3C[C@@H](O)CC(=O)O3)[C@H]21 [Monacoline K]
[1]
  activity for the enzyme relative to the natural substrate HMG-CoA: 2000 times

## COc1ccc2cc3[n+](cc2c1OC)CCc1cc2c(cc1-3)OCO2 [berberine, 5,6-dihydro-9,10-dimethoxybenzo[g]-1,3-benzodioxolo[5,6-a]quinolizinium]
[2]; berberine 30 mg/kg/d
  increase in HDL: 0.48 mmol/L
[2]; [6]
  reduction of the increase in LDL caused by AT: 13%
  reduction of the increase in total cholesterol (CT) caused by AT: 15%
[2]; berberine 30 mg/kg/d by stomach tube, p<0.01
  reduction of the increase in blood triglycerides (TG) caused by AT: 43%
[2]; berberine 100 mg/kg/d
  increase in HDL: 0.53 mmol/L
[2]; [7]
  reduction of the increase in LDL caused by AT: 89%
  reduction of the increase in blood triglycerides (TG) caused by AT: 66%
  reduction of the increase in total cholesterol (CT) caused by AT: 87%
[3]
  hepatic transaminases: decrease in hepatic transaminases
[4]
  hepatic transaminases: improved
  tolerability of the treatment: well tolerated

## CC1=C(/C=C/C(C)=C/C=C/C(C)=C/C=C/C=C(C)/C=C/C=C(C)/C=C/C2=C(C)C(=O)[C@@H](O)CC2(C)C)C(C)(C)C[C@H](O)C1=O [Ast, 3,3′-dihydroxy-β,β′-carotene-4,4′-dione]
[5]
  NOAEL equivalent in humans: more than 80 g
